System: platinum-resistant ovarian cancer (epithelial ovarian, fallopian tube or primary peritoneal cancer)
Assay: AURELIA Phase III trial, efficacy (PFS by RECIST, ORR)
Type: in vivo, human
Details: for PFS Events, % / PFS Median, mo / ORR, %: by chemotherapy cohort; for ORR, %: overall response rate (RECIST and/or CA-125)
Excerpt: The AURELIA trial evaluated the efficacy and safety of bevacizumab in combination with chemotherapy for platinum-resistant ovarian cancer. This study was designed as a prospective, open-label, randomised, two-arm Phase III evaluation of bevacizumab plus chemotherapy versus chemotherapy alone. To be eligible, patients must have ovarian cancer that progressed within 6 months of previous platinum-based therapy. Paclitaxel, topotecan or pegylated liposomal doxorubicin (PLD) was selected as chemotherapeutic combination partners since they are commonly used for treatment of platinum-resistant disease. By adding bevacizumab to chemotherapy, the AURELIA trial aimed to improve PFS for this group of patients who have limited therapeutic options and face a particularly poor prognosis. The primary objective was to compare progression-free survival (PFS) of patients randomised to selected chemotherapy only or to selected chemotherapy plus bevacizumab.
Study Design—This trial consisted of two (2) treatment arms: chemotherapy-alone (Arm 1) and chemotherapy plus bevacizumab (Arm 2). Patients were randomly assigned (1:1) to either arm, see FIG. 1.
Eligible patients received one of the following chemotherapies on a 4-week cycle at the discretion of the investigator: • a. Paclitaxel 80 mg/m^2 as a 1-hour i.v. infusion on days 1, 8, 15 and 22 q4w. • b. Topotecan 4 mg/m^2 as a 30 minute i.v. infusion on days 1, 8 and 15 q4w. Alternatively, a 1.25 mg/m^2 dose can be administered over 30 minutes on days 1-5 every three weeks. • c. Pegylated liposomal doxorubicin 40 mg/m^2 as a 1 mg/min i.v. infusion on day 1 only, q4w. After cycle 1, the drug can be delivered as a 1 h infusion.
The chemotherapy was selected from one of those described in Arm 1 at the discretion of the investigator. The chosen chemotherapy was initially combined with bevacizumab 10 mg/kg i.v. every two weeks (or 15 mg/kg every three weeks if used in combination with topotecan 1.25 mg/m^2 on days 1-5 of a every three weeks schedule). The initial bevacizumab infusion was over 90 minutes, with subsequent infusions over 60 minutes and then 30 minutes, as tolerated. Bevacizumab was administered before the chemotherapy at the first cycle and then administered prior or after the chemotherapy at subsequent cycles. In case chemotherapy was completed before diagnosis of progressive disease, patients continued to receive bevacizumab as either: (a) 10 mg/kg i.v. every two weeks; or (b) 15 mg/kg every three weeks if topotecan was selected and administered at a dose of 1.25 mg/m^2 on days 1-5 of a every three weeks schedule. After disease progression, patients received standard of care treatment.
Analyses of PFS and ORR was based on tumour assessments (based on RECIST criteria) using cross sectional imaging (preferably by CT or MRI in case of contrast allergy) of the pelvis and abdomen and (by X-ray or preferably by CT-scan) of the chest. The same assessment technique was used throughout the study to evaluate a particular lesion.
Tumour assessments were performed at baseline then every 8 weeks (every 9 weeks for patients treated with 1.25 mg/m^2 topotecan on days 1-5 of a every three weeks cycle). Responses were confirmed by a second CT scan performed not earlier than 4 weeks after the criteria for response were first met.
Progressive serial elevation of serum CA-125 were used to determine CA-125 response and biological progression-free interval (PFIbio). Overall survival was measured from the date of randomisation to the date of death from any cause.
Eligible patients had ovarian cancer (measurable by RECIST 1.0 or assessable) that had progressed ≤6 mo after ≥4 cycles of platinum-based therapy. Patients with refractory ovarian cancer, history of bowel obstruction or >2 prior anticancer regimens were ineligible. […]

CC[C@@]1(O)C(=O)OCc2c1cc1n(c2=O)Cc2cc3c(CN(C)C)c(O)ccc3nc2-1 [TOP CT, topotecan]
PFS Events, %: 89% | PFS Median, mo: 2.1 mo | ORR, %: 3.3%

CC(=O)O[C@H]1C(=O)[C@@]2(C)[C@H]([C@H](OC(=O)c3ccccc3)[C@]3(O)C[C@H](OC(=O)[C@H](O)[C@@H](NC(=O)c4ccccc4)c4ccccc4)C(C)=C1C3(C)C)[C@]1(OC(C)=O)CO[C@@H]1C[C@@H]2O [PAC CT, paclitaxel]
PFS Events, %: 89% | PFS Median, mo: 3.9 mo | ORR, %: 28.8%

B1: bevacizumab (antibody, V domains shown)
VH: EVQLVESGGGLVQPGGSLRLSCAASGYTFTNYGMNWVRQAPGKGLEWVGWINTYTGEPTYAADFKRRFTFSLDTSKSTAYLQMNSLRAEDTAVYYCAKYPHYYGSSHWYFDVWGQGTLVTVSS
VL: DIQMTQSPSSLSASVGDRVTITCSASQDISNYLNWYQQKPGKAPKVLIYFTSSLHSGVPSRFSGSGSGTDFTLTISSLQPEDFATYYCQQYSTVPWTFGQGTKVEIKR
modifications: amino acid sequence of humanized antibody variable heavy chain; amino acid sequence of humanized antibody variable light chain
notes: recombinant humanized anti-VEGF monoclonal antibody
overall response rate (ORR) by RECIST, CA-125 or both (FIG. 3) (bevacizumab added to chemotherapy vs chemotherapy alone): increased the overall response rate (ORR)
